Laboratory results: patent publication US20090270386A1, “THERAPEUTIC COMPOUNDS” (ALLERGAN, INC., priority 2008, published 2009)

Assays:
[1] = system: normotensive dogs; experiment: Intraocular pressure reduction in normotensive dogs; assay type: in vivo
Method: U.S. Pat. No. 7,091,231 describes the methods used for these in vivo tests.
Compounds such as those described in the above are tested in vivo to measure its ability to reduce intraocular pressure. Compound 14a is tested in normotensive dogs.

[2] = system: laser-induced hypertensive monkeys; experiment: Intraocular pressure reduction in laser-induced hypertensive monkeys; assay type: in vivo
[3] = system: lashes and adjacent hairs of glaucoma patients; experiment: Observation of eyelash/hair growth in glaucoma patients treated in one eye; assay type: in vivo, humans; settings: glaucoma patients treated unilaterally
Excerpt: In the course of treating patients having glaucoma, treatment may only be appropriate in one eye. […] The lash appearance on the lids of the treated eyes would have appeared quite attractive if it represented a bilateral phenomenon. As a result of its asymmetric nature, the long lashes on one side could be construed as disturbing from a cosmetic standpoint. A systemic examination was preformed as a result of the asymmetric phenomenon. It soon became apparent that this altered appearance was not an isolated finding. […] Definite differences could be identified to varying degrees in the lashes and adjacent hairs of all patients who were taking the drug on a unilateral basis for longer than 6 months.
The changes in the lashes were apparent on gross inspection in several patients once attention was focused on the issue. In those with light colored hair and lashes, the differences were only seen easily with the aid of the high magnification and lighting capabilities of the slit lamp biomicroscope. In the course of glaucoma follow-up examination, attention is generally immediately focused on the eye itself. As a result of the high power magnification needed only one eye is seen at a time and the eye is seen at a high enough power that the lashes are not in focus. […]

SMILES | intraocular pressure (IOP) change from baseline [1] | IOP change from baseline [2] | lash appearance in treated eye versus non-treated eye [3]
O=C(OCCO)c1ccc(CCCC2C(=O)CCC2COc2cc(Cl)cc(CO)c2)s1 (centres unmarked) [Compound 46a] | decreases from baseline | decreases from baseline | –
O=C(OCCO)c1ccc(CCCC2C(F)CC(O)C2COc2cc(Cl)cc(Cl)c2)s1 (centres unmarked) [Compound 70a] | decreases from baseline | decreases from baseline | –
COCc1cc(Cl)cc(OCC2C(O)CC(Cl)C2CC=CCCCC(=O)OCCN2CCOCC2)c1 (centres unmarked) [Compound 22b] | decreases from baseline | decreases from baseline | –
CC(=O)OCCc1cc(Cl)cc(OCC2C(O)CC(Cl)C2CC=CCCCC(=O)OCCO)c1 (centres unmarked) [Compound 16a] | decreases from baseline | decreases from baseline | –
O=C(OCCO)c1ccc(CCCC2=CCC(O)C2COc2cc(Cl)cc(Cl)c2)s1 (centres unmarked) [Compound 68a] | decreases from baseline | decreases from baseline | –
O=C(OCCN1CCOCC1)c1ccc(CCCC2C(Cl)CC(O)C2COc2cc(Cl)cc(CO)c2)s1 (centres unmarked) [Compound 34b] | decreases from baseline | decreases from baseline | –
Cc1cc(C)cc(OCC2C(O)CC(Cl)C2CCCc2ccc(C(=O)OCCN3CCOCC3)s2)c1 (centres unmarked) [Compound 35b] | decreases from baseline | decreases from baseline | –
COCc1cc(Cl)cc(OCC2C(O)CC(Cl)C2CC=CCCCC(=O)OCCO)c1 (centres unmarked) [Compound 22a] | decreases from baseline | decreases from baseline | –
O=C(OCCO)c1ccc(CCCC2C(Cl)CCC2COc2cc(Cl)cc(CO)c2)s1 (centres unmarked) [Compound 51a] | decreases from baseline | decreases from baseline | –
N#CC1CC(O)C(COc2cc(Cl)cc(Cl)c2)C1CCCc1ccc(C(=O)OCCN2CCOCC2)s1 (centres unmarked) [Compound 58b] | decreases from baseline | decreases from baseline | –
O=C(OCCO)c1ccc(CCCC2C(Cl)CC(O)C2COc2cc(Cl)cc(CO)c2)s1 (centres unmarked) [Compound 34a] | decreases from baseline | decreases from baseline | –
CC(=O)OCCc1cc(Cl)cc(OCC2C(O)CC(Cl)C2CC=CCCCC(=O)OCCN2CCOCC2)c1 (centres unmarked) [Compound 16b] | decreases from baseline | decreases from baseline | –
O=C(OCCO)c1ccc(CCCC2C(Cl)CC(O)C2COc2cc(Cl)cc(Cl)c2)s1 (centres unmarked) [Compound 33a] | decreases from baseline | decreases from baseline | –
O=C(OCCN1CCOCC1)c1ccc(CCCC2C(F)CC(O)C2COc2cc(Cl)cc(Cl)c2)s1 (centres unmarked) [Compound 70b] | decreases from baseline | decreases from baseline | –
O=C(OCCN1CCOCC1)c1ccc(CCCC2C(=O)CCC2COc2cc(Cl)cc(CO)c2)s1 (centres unmarked) [Compound 46b] | decreases from baseline | decreases from baseline | –
O=C(OCCN1CCOCC1)c1ccc(CCCC2=CCC(O)C2COc2cc(Cl)cc(Cl)c2)s1 (centres unmarked) [Compound 68b] | decreases from baseline | decreases from baseline | –
N#CC1CC(O)C(COc2cc(Cl)cc(Cl)c2)C1CCCc1ccc(C(=O)OCCO)s1 (centres unmarked) [Compound 58a] | decreases from baseline | decreases from baseline | –
Cc1cc(C)cc(OCC2C(O)CC(Cl)C2CCCc2ccc(C(=O)OCCO)s2)c1 (centres unmarked) [Compound 35a] | decreases from baseline | decreases from baseline | –
O=C(OCCN1CCOCC1)c1ccc(CCCC2C(Cl)CC(O)C2COc2cc(Cl)cc(Cl)c2)s1 (centres unmarked) [Compound 33b] | decreases from baseline | decreases from baseline | –
O=C(OCCN1CCOCC1)c1ccc(CCCC2C(Cl)CCC2COc2cc(Cl)cc(CO)c2)s1 (centres unmarked) [Compound 51b] | decreases from baseline | decreases from baseline | –
CCNC(=O)CCC/C=C\C[C@@H]1[C@@H](/C=C/[C@@H](O)CCc2ccccc2)[C@H](O)C[C@@H]1O [bimatoprost] | – | – | longer, thicker, and fuller in the treated eye
